Laboratory results: ChEMBL document CHEMBL5303304, “EUbOPEN Chemogenomics Library - IncuCyte” (2023)

What was measured:
Type in all cases: toxicity, cell-based
U2OS = assay: Incucyte cell viability with U2OS; conditions: human, 10 µM, compound concentration 10 uM
HEK-293T = assay: Incucyte cell viability with HEK293T; conditions: human, 10 µM, compound concentration 10 uM
Fibroblast = assay: Incucyte cell viability with human fibroblast; conditions: 10 µM, compound concentration 10 uM
Note: unitless GR value; below 1 slowed growth and below 0 cell loss.

Compound | Growth Rate (U2OS; 12 h, replicate number 2) | Growth Rate (U2OS; 18 h, replicate number 1) | Growth Rate (U2OS; 18 h, replicate number 2) | Growth Rate (U2OS; 24 h, replicate number 1) | Growth Rate (U2OS; 24 h, replicate number 2) | Growth Rate (HEK-293T; 0 h, replicate number 1) | Growth Rate (HEK-293T; 0 h, replicate number 2) | Growth Rate (HEK-293T; 6 h, replicate number 1) | Growth Rate (HEK-293T; 6 h, replicate number 2) | Growth Rate (HEK-293T; 12 h, replicate number 1) | Growth Rate (HEK-293T; 12 h, replicate number 2) | Growth Rate (HEK-293T; 18 h, replicate number 1) | Growth Rate (HEK-293T; 18 h, replicate number 2) | Growth Rate (HEK-293T; 24 h, replicate number 1) | Growth Rate (HEK-293T; 24 h, replicate number 2) | Growth Rate (Fibroblast; 0 h, replicate number 2) | Growth Rate (Fibroblast; 18 h, replicate number 1) | Growth Rate (U2OS; 0 h, replicate number 1) | Growth Rate (U2OS; 6 h, replicate number 1) | Growth Rate (Fibroblast; 0 h, replicate number 1) | further results
O=C1NC(Nc2ccccc2)=N/C1=C\c1ccc2c(c1)OCO2 | 0.39 | 0.85 | 0.66 | 0.95 | 0.66 | 0.4 | 0.1 | 0.83 | 0 | 0.37 | 0.19 | 0.43 | 0.47 | 0.56 | 0.33 | -0.92 |  |  |  |  | Growth Rate (U2OS; 6 h, replicate number 2): 0.78; Growth Rate (Fibroblast; 6 h, replicate number 1): -0.96
COc1ccc(-n2c(C)c([N+](=O)[O-])c3ccc(O)cc32)cc1 | 0.65 | 0.88 | 0.61 | 0.91 | 0.77 | 0.26 | -0.46 |  |  |  |  |  |  |  |  | 0.13 | -0.35 |  |  |  | 
CCc1cc2c(cc1-c1cccc(S(=O)(=O)F)c1)C(C)(C)c1[nH]c3cc(C#N)ccc3c1C2=O | 0.66 | 0.76 |  | 0.66 | 0.77 | 0.33 | 0.37 | -0.16 | -0.05 | 0.48 | 0.78 | 0.83 | 0.95 | 0.69 |  |  | -0.55 | -1 | 0.58 | -0.25 | Growth Rate (U2OS; 0 h, replicate number 2): -0.59; Growth Rate (U2OS; 12 h, replicate number 1): 0.52; Growth Rate (Fibroblast; 6 h, replicate number 2): 0.75; Growth Rate (Fibroblast; 12 h, replicate number 1): -0.96; Growth Rate (Fibroblast; 18 h, replicate number 2): 0.89; Growth Rate (Fibroblast; 24 h, replicate number 1): 0.61; Growth Rate (Fibroblast; 24 h, replicate number 2): 0.9
COc1cc(C(=O)NCCOCCOCCOCC(=O)N[C@H](C(=O)N2C[C@@H](O)C[C@H]2C(=O)NCc2ccc(-c3scnc3C)cc2)C(C)(C)C)ccc1Nc1ncc(C(F)(F)F)c(Oc2cccc3c2C(=O)CC3)n1 |  |  |  |  | 0.94 | -1 |  |  |  |  |  |  |  |  |  | 0.86 |  |  |  |  | Growth Rate (U2OS; 0 h, replicate number 2): 0.1
O=C1c2c(Br)c(Br)c(Br)c(Br)c2C(=O)N1c1ncc[nH]1 | 0.88 |  | 0.8 |  | 0.85 | 0.6 | 0.63 |  | 0.37 |  | 0.57 |  | 0.74 |  | 0.78 |  | 0.49 | 0.58 | 0.7 | 0.94 | Growth Rate (U2OS; 6 h, replicate number 2): 0.25; Growth Rate (Fibroblast; 6 h, replicate number 2): -0.34; Growth Rate (Fibroblast; 12 h, replicate number 1): -0.93; Growth Rate (Fibroblast; 12 h, replicate number 2): 0.46; Growth Rate (Fibroblast; 18 h, replicate number 2): 1
O=C(O)C(F)(F)F.O=C1NC(=O)/C(=C/c2c[nH]c(=O)c(-c3ccc(N4CCNCC4)nc3)c2)S1 |  | 0.97 |  | 0.96 |  | 0.51 | 0.87 |  |  |  | 0.93 |  | 0.96 |  | 0.95 |  | -0.06 |  | 0.54 | 0.18 | Growth Rate (U2OS; 0 h, replicate number 2): -0.63; Growth Rate (U2OS; 12 h, replicate number 1): 0.92; Growth Rate (Fibroblast; 6 h, replicate number 2): -0.44; Growth Rate (Fibroblast; 12 h, replicate number 1): -0.78; Growth Rate (Fibroblast; 12 h, replicate number 2): 0.62; Growth Rate (Fibroblast; 18 h, replicate number 2): 0.69; Growth Rate (Fibroblast; 24 h, replicate number 1): 0.69; Growth Rate (Fibroblast; 24 h, replicate number 2): 0.73
O=C1NC(=Nc2c(Cl)cccc2Cl)S/C1=C\c1ccc2nccnc2c1 | 0.38 | 0.81 | 0.64 | 0.8 | 0.75 | 0.08 | 0.44 | 0.02 |  | 0.48 | 0.26 | 0.44 | 0.35 | 0.52 | 0.45 |  |  | 0.01 | 0.4 | 0.49 | Growth Rate (U2OS; 6 h, replicate number 2): 0.31; Growth Rate (Fibroblast; 6 h, replicate number 2): 0.92; Growth Rate (Fibroblast; 12 h, replicate number 2): 0.96
O=C1NC(NC23CC4CC(CC(C4)C2)C3)=N/C1=C\c1ccc2ncsc2c1 |  |  | 0.87 | 0.82 | 0.52 | -0.45 | -0.26 |  |  | 0.28 | 0.34 | 0.06 | 0.09 | 0.08 | 0.05 | 0.76 |  | 0.86 |  | 0.57 | Growth Rate (U2OS; 0 h, replicate number 2): -0.34; Growth Rate (Fibroblast; 6 h, replicate number 1): -1
Cc1ncsc1-c1ccc(CNC(=O)[C@@H]2C[C@H](O)CN2C(=O)[C@@H](NC(=O)C2(F)CC2)C(C)(C)C)c(OCCOc2ccc(CN3CCN(c4cc(-c5ccccc5O)nnc4N)CC3)cc2)c1 |  |  |  | 0.98 |  | -0.03 | -0.99 |  |  |  |  |  |  |  |  | 0.56 |  |  |  |  | 
CC(C)(C)NC(=O)c1cncn1C1CCN(c2ccc(-c3nnc(C(F)(F)F)o3)cn2)CC1 | 0.34 | 0.27 | 0.46 | 0.32 | 0.6 | -0.46 | -0.33 | 0.35 | -0.15 | 0.06 | -0.22 | 0.18 | -0.09 | 0.15 | 0.08 |  | -0.2 | -0.02 | -0.4 | -1 | Growth Rate (U2OS; 0 h, replicate number 2): 0.52; Growth Rate (U2OS; 6 h, replicate number 2): 0; Growth Rate (U2OS; 12 h, replicate number 1): -0.09; Growth Rate (Fibroblast; 6 h, replicate number 1): 0.1; Growth Rate (Fibroblast; 6 h, replicate number 2): -0.99; Growth Rate (Fibroblast; 12 h, replicate number 1): -0.09; Growth Rate (Fibroblast; 12 h, replicate number 2): -0.49; Growth Rate (Fibroblast; 18 h, replicate number 2): -0.39; Growth Rate (Fibroblast; 24 h, replicate number 1): -0.13; Growth Rate (Fibroblast; 24 h, replicate number 2): -0.11
CC(=O)c1ccc2c(c1)/C(=C(/NC1CCN(C)CC1)c1ccc3c(c1)OCO3)C(=O)N2 | 0.33 | 0.32 | 0.13 | 0.21 | 0.13 | -0.53 | 0.02 | -0.84 | -0.95 | -0.7 | -0.83 | -0.5 | -0.63 | -0.37 | -0.45 |  | 0.78 |  | 0.57 |  | Growth Rate (U2OS; 12 h, replicate number 1): 0.52; Growth Rate (Fibroblast; 12 h, replicate number 2): 0.74; Growth Rate (Fibroblast; 18 h, replicate number 2): 0.48; Growth Rate (Fibroblast; 24 h, replicate number 1): 0.63; Growth Rate (Fibroblast; 24 h, replicate number 2): 0.37
